According to US10406169B2, “Methods of monitoring estriol therapy” (The Regents of the University of California, priority 2015, dated 2019):

What was measured:
[1] = test system: relapsing-remitting multiple sclerosis; assay: Disability and questionnaire outcomes (EDSS, MFIS, BDI, MSQOL); assay type: in vivo, human; settings: for Proportion of pts with disability (EDSS) progression at 24 months % (95% CI): Kaplan-Meier
Protocol: EDSS assessments were performed by physicians who were trained either by in-person training or online (www.Neurostatus.net). […] Tertiary end points included gray matter atrophy on MRI, and changes in results from baseline on questionnaires including the Modified Fatigue Impact Scale, Beck Depression Inventory, and MS Quality of Life. Mixed effects negative binomial regression model and linear mixed effects model were used to compare enhancing lesion volume (log-transformed) between treatment groups at all follow-ups, and mixed effects logistic model was used to compare the number of subjects positive for gadolinium enhancing lesions. Linear mixed effects model was carried out to compare the percent change in whole gray matter and cortical gray matter between treatment groups.

[2] = test system: relapsing-remitting multiple sclerosis; assay: MRI brain volumes (pairwise Jacobian integration); assay type: in vivo, human
Protocol: Mixed effects negative binomial regression model and linear mixed effects model were used to compare enhancing lesion volume (log-transformed) between treatment groups at all follow-ups, and mixed effects logistic model was used to compare the number of subjects positive for gadolinium enhancing lesions. Linear mixed effects model was carried out to compare the percent change in whole gray matter and cortical gray matter between treatment groups. For the exploratory endpoints of EDSS, PASAT, fatigue, depression, quality of life and brain volume measures, linear mixed effects model was used to compare treatment groups at 12 and 24 months.
Dual-echo fast spin echo: TR10000, TE12/95, 50 slices, 1×1×3 mm. Fluid attenuated inversion recovery (FLAIR): TR10380, TE88, TI88, TI2500, 50 slices, 1×1×3 mm. Minor changes were allowed to accommodate different platforms and field strengths at each site. MRI data in Dicom format were fully anonymized prior to transfer and then uploaded to the central MRI reading center database. Prior to study onset, each site provided a dummy scan utilizing the standardized sequences for review by the central MRI reading center to verify scan quality and fidelity. Quality control was maintained at each site using standard procedures for clinical scanners (daily phantoms, stability testing). Quarterly phantoms were collected from 12 of the 15 sites, most using the standard American College of Radiology (ACR) phatom. One site upgraded from a Siemens 1.5T to a 3.0T in November 2013, resulting in the acquisition of one month 24 scan on the new scanner. One site upgraded from a Phillips Achieva 3.0T to a Pillips Intera 3.0T after the first subject completed month 24. All subsequent studies were performed on the Intera.
MRI brain, whole gray matter, whole white matter and cortical gray matter volumes were determined using a pairwise Jacobian integration (PJI) method. Pre-processing for structural T1-weighted images included 1) N3 non-uniformity correction, 2) histogram-based intensity normalization, 3) linear standard space registration using ICBM 2009c nonlinear symmetric template, 4) patch-based brain extraction, and 5) lesion-inpainting. Inputs to PJI were a pair of baseline and follow-up pre-processed structural T1-weighed images. The PJI consisted of 1) linear skull-constrained symmetric registration, 2) halfway transformation and resampling, 3) nonlinear symmetric registration using ANTS, and 4) voxelwise Jacobian determinant calculation on the warp field. Whole gray matter and whole white matter tissue masks were generated by SPM8 Segment function. Additional nonlocal means denoising was applied. For whole brain tissue masks, the whole gray matter and whole white matter masks were combined. For cortical gray matter mask, a standard cortical mask was nonlinearly transformed and merged with gray matter mask. The standard template was the ICBM (ICBM 2009c nonlinear symmetric version), and the nonlinear registration was performed by ANTS. Finally, the Jacobian determinants were averaged within the masks for percent volume change in cortical gray matter, whole gray matter, whole white matter, and whole brain.

[3] = 24 months, negative = improvement
[4] = Baseline to 12 months, all patients
[5] = Baseline to 12 months, all patients, listed as Placebo+GA
[6] = Baseline to 12 months, patients with enhancing lesions at baseline
[7] = Baseline to 12 months, patients without enhancing lesions at baseline
[8] = Baseline to 12 months, patients without enhancing lesions at baseline, listed as Placebo+GA
[9] = Baseline to 24 months, all patients
[10] = Baseline to 24 months, patients with enhancing lesions at baseline
[11] = Baseline to 24 months, patients without enhancing lesions at baseline

For glatiramer acetate [Placebo + GA], the “Beck Depression Inventory (BDI) score median change from baseline” value [1, 3] was −3.5, the “MFIS score median change from baseline” value [1, 3] was 0 and the “Proportion of pts with disability (EDSS) progression at 24 months % (95% CI)” value [1] was 15.8 (8.8-27.6) %. For the same substance, the “Proportion of pts with disability (EDSS) progression at 24 months % (95% CI)” value ([1]; listed as Placebo plus GA) was 15.8%, the “MSQOL composite scores for Physical outcomes” value ([1]; change from baseline) was “no change” and the “EDSS score reduction from baseline to Month 24, Mean ± SD” value ([1]; in vivo) was 0.05 ± 1.13. The “EDSS score reduction from baseline to Month 24, Median” value ([1]; in vivo) was 0.0, the “EDSS absolute median change from baseline” value ([1]; month 24, negative = improvement) was 0 and the “Cortical gray matter baseline volume” value ([2]; Baseline) was 761 ± 42 cc. For the same substance, the “White matter baseline volume” value ([2]; Baseline) was 640 ± 32 cc, the “Whole brain baseline volume” value ([2]; Baseline) was 1602 ± 51 cc and the “Whole gray matter baseline volume” value ([2]; Baseline) was 926 ± 52 cc. For the same substance, the “Cortical gray matter volume % change, Mean ± SE” value [2, 4] was −0.74 ± 0.81, %, the “Cortical gray matter volume % change, median” value [2, 4] was −0.69% and the “White matter volume % change, Mean ± SE” value [2, 4] was −0.21 ± 0.82, %. For the same substance, the “White matter volume % change, median” value [2, 4] was −0.15%, the “Whole brain volume % change, Mean ± SE” value [2, 4] was −0.49 ± 0.63, % and the “Whole brain volume % change, median” value [2, 4] was −0.43%. The “Whole gray matter volume % change, Mean ± SE” value [2, 4] was −0.68 ± 0.71, %, the “Whole gray matter volume % change, median” value [2, 4] was −0.66% and the “Cortical gray matter volume % change, Mean ± SE” value [2, 5] was −0.74%. The “Whole gray matter volume % change, Mean ± SE” value [2, 5] was −0.68%, the “Cortical gray matter volume % change, Mean ± SE” value [2, 6] was −0.67 ± 0.72, % and the “Cortical gray matter volume % change, median” value [2, 6] was −0.69%. For the same substance, the “White matter volume % change, Mean ± SE” value [2, 6] was −0.36 ± 1.06, %, the “White matter volume % change, median” value [2, 6] was −0.14% and the “Whole gray matter volume % change, Mean ± SE” value [2, 6] was −0.65 ± 0.64, %. The “Whole gray matter volume % change, median” value [2, 6] was −0.64%, the “Cortical gray matter volume % change, Mean ± SE” value [2, 7] was −0.76 ± 0.85, % and the “Cortical gray matter volume % change, median” value [2, 7] was −0.73%. For the same substance, the “White matter volume % change, Mean ± SE” value [2, 7] was −0.15 ± 0.71, %, the “White matter volume % change, median” value [2, 7] was −0.15% and the “Whole gray matter volume % change, Mean ± SE” value [2, 7] was −0.70 ± 0.74, %. The “Whole gray matter volume % change, median” value [2, 7] was −0.66%, the “Cortical gray matter volume % change, Mean ± SE” value [2, 8] was −0.76% and the “Whole gray matter volume % change, Mean ± SE” value [2, 8] was −0.70%. For the same substance, the “Cortical gray matter volume % change, Mean ± SE” value [2, 9] was −1.05 ± 0.86, %, the “Cortical gray matter volume % change, median” value [2, 9] was −0.94% and the “White matter volume % change, Mean ± SE” value [2, 9] was −0.52 ± 1.12, %. The “White matter volume % change, median” value [2, 9] was −0.54%, the “Whole brain volume % change, Mean ± SE” value [2, 9] was −0.77 ± 0.72, % and the “Whole brain volume % change, median” value [2, 9] was −0.88%. For the same substance, the “Whole gray matter volume % change, Mean ± SE” value [2, 9] was −0.95 ± 0.75, %, the “Whole gray matter volume % change, median” value [2, 9] was −0.93% and the “Cortical gray matter volume % change, Mean ± SE” value [2, 10] was −0.82 ± 0.80, %. For the same substance, the “Cortical gray matter volume % change, median” value [2, 10] was −0.93%, the “White matter volume % change, Mean ± SE” value [2, 10] was −0.62 ± 0.97, % and the “White matter volume % change, median” value [2, 10] was −0.84%. For the same substance, the “Whole gray matter volume % change, Mean ± SE” value [2, 10] was −0.82 ± 0.70, %, the “Whole gray matter volume % change, median” value [2, 10] was −0.92% and the “Cortical gray matter volume % change, Mean ± SE” value [2, 11] was −1.12 ± 0.88, %. The “Cortical gray matter volume % change, median” value [2, 11] was −0.94%, the “White matter volume % change, Mean ± SE” value [2, 11] was −0.46 ± 1.17, % and the “White matter volume % change, median” value [2, 11] was −0.48%. For the same substance, the “Whole gray matter volume % change, Mean ± SE” value [2, 11] was −0.98 ± 0.77, % and the “Whole gray matter volume % change, median” value [2, 11] was −0.92%.
